Counter-ions that a name gives are not always drawn.

The target of one assay is hNav1.7 (Homo sapiens (Human), UniProt Q15858). In words: Tritiated sulfonamide competitive binding to membranes from cells expressing hNav1.7 and the β1 subunit.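 Also: Filter-bound radioactivity counted by liquid scintillation, nonspecific binding defined with excess unlabelled ligand, IC50 fitted to percent inhibition of specific binding.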
Sequence of hNav1.7 (Q15858 other isoform, or with tags, fused parts or gaps): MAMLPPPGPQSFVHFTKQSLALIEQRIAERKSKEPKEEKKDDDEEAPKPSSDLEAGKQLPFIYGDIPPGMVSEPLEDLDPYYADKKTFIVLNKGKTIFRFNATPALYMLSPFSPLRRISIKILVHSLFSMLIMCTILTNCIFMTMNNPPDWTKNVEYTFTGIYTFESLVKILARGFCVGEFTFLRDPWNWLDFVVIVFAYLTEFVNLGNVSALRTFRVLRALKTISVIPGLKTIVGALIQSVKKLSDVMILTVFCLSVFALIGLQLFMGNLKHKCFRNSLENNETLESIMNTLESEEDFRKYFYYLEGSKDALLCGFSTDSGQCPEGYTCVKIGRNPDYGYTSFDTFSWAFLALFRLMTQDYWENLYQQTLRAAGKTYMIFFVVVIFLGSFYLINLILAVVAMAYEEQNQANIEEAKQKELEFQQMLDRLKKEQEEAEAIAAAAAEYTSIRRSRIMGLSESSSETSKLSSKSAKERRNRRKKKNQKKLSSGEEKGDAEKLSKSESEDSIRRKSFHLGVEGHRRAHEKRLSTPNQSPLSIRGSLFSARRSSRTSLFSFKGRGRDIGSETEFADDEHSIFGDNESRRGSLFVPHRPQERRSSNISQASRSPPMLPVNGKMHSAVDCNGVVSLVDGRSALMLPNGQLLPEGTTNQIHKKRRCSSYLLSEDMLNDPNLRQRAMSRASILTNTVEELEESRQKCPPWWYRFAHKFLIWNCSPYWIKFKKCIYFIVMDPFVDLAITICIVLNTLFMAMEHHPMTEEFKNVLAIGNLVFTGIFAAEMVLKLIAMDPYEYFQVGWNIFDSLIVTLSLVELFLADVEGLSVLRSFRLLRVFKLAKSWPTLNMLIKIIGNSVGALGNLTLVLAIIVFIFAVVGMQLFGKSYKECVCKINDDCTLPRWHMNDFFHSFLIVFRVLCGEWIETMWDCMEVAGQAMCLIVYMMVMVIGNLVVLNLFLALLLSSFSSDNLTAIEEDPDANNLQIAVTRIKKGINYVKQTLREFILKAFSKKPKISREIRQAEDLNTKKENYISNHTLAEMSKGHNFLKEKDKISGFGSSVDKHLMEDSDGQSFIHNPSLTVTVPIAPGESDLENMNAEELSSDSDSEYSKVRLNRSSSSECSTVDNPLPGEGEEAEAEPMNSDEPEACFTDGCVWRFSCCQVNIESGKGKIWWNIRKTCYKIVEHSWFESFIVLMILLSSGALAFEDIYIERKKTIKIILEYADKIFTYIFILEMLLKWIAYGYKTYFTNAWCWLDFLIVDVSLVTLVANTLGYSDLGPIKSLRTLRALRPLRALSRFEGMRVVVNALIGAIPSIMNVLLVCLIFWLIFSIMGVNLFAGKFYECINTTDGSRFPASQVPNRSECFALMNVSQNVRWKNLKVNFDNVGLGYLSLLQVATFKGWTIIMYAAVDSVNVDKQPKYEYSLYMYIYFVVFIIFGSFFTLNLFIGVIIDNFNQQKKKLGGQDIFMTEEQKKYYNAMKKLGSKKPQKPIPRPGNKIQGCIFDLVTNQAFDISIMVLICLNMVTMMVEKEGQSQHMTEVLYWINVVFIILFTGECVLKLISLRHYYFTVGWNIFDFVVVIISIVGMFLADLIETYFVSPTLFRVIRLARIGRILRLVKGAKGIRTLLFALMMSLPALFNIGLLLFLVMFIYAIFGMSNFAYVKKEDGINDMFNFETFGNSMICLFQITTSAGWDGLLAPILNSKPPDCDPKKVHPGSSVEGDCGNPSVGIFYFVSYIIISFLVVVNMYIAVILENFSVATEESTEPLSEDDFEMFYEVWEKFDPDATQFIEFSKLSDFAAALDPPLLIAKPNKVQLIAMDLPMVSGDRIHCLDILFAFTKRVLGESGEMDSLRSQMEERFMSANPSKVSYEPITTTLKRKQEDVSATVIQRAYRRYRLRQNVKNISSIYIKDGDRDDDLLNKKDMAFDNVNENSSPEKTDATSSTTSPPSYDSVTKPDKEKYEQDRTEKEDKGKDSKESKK
Sequence of hNav1.7 (Q07699 19-218 partner): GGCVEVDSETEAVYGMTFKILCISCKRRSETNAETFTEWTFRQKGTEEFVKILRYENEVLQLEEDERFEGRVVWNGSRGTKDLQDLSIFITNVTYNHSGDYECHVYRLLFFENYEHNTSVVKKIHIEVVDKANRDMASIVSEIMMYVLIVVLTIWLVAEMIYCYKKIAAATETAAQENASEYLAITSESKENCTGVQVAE
Settings: not given
Compound `CS(=O)(=O)NC(=O)c1cc(C2CC2)c(OCC2CN([C@H](c3ccccc3)c3ccc(C#N)cc3)C2)cc1F` [Example 111, (R)-4-((1-((4-Cyanophenyl)(phenyl)methyl)azetidin-3-yl)methoxy)-5-cyclopropyl-2-fluoro-N-(methylsulfonyl)benzamide] gave an IC50 of 20.4 nM. With `O=C(NS(=O)(=O)C1CC1)c1cc(C2CC2)c(CN2CCC(Oc3ccc(C(F)(F)F)cc3)CC2)cc1F` [Example 500, 5-cyclopropyl-N-(cyclopropylsulfonyl)-2-fluoro-4-((4-(4-(trifluoromethyl)phenoxy)piperidin-1-yl)methyl)benzamide], the IC50 came out at 7.8 nM. Same read-out and setting: the result for `CS(=O)(=O)NC(=O)c1cc(C2CC2)c(CN2CCC(Oc3ccc(Cl)cc3Cl)CC2)cc1F` [Example 546, 5-cyclopropyl-4-((4-(2,4-dichlorophenoxy)piperidin-1-yl)methyl)-2-fluoro-N-(methylsulfonyl)benzamide, trifluoroacetic acid salt] reads 11.9 nM; that for `C[C@H](c1cc(Cl)cc(Cl)c1)N1CCC(COc2cc(F)c(C(=O)NS(=O)(=O)C3CC3)cc2C2CC2)CC1` [Example 269, (R)-5-cyclopropyl-N-(cyclopropylsulfonyl)-4-((1-(1-(3,5-dichlorophenyl)ethyl)piperidin-4-yl)methoxy)-2-fluorobenzamide], 3.4 nM. In turn, `O=C(NS(=O)(=O)C1CC1)c1cc(C2CC2)c(CN2CCN(Cc3cc(Cl)cc(Cl)c3)CC2)cc1F` [Example 518, 5-cyclopropyl-N-(cyclopropylsulfonyl)-4-((4-(3,5-dichlorobenzyl)piperazin-1-yl)methyl)-2-fluorobenzamide, trifluoroacetic acid salt] had an IC50 of 8.2 nM.

Still in this assay, the particulars now being: read-out: Ligand Binding Assay; 100 pM [3H]compound, membranes with hNav1.7 and β1 subunit, 18 h, room temperature.
`O=C(NS(=O)(=O)C(F)F)c1cc(C2CC2)c(OCC2CN(C(c3ccccc3)c3ccccc3)C2)cc1F` [Example 62]: the IC50 was 47 nM. As to `CS(=O)(=O)NC(=O)c1cc(C2CC2)c(OC2CC3(C2)CN(Cc2ccc(F)cc2Cl)C3)cc1F` [Example 320, 4-((2-(2-chloro-4-fluorobenzyl)-2-azaspiro[3.3]heptan-6-yl)oxy)-5-cyclopropyl-2-fluoro-N-(methylsulfonyl)benzamide, trifluoroacetic acid salt], the IC50 was 213 nM. Same read-out and setting: the result for `CS(=O)(=O)NC(=O)c1cc(C2CC2)c(OCC2CCN(Cc3cnc(OCC(F)(F)F)c(Cl)c3)CC2)cc1F` [Example 190, 4-((1-((5-Chloro-6-(2,2,2-trifluoroethoxy)pyridin-3-yl)methyl)piperidin-4-yl)methoxy)-5-cyclopropyl-2-fluoro-N-(methylsulfonyl)benzamide] reads 56 nM; that for `CS(=O)(=O)NC(=O)c1cc(C2CC2)c(OCC2CCN(S(=O)(=O)c3ccc(F)c(Cl)c3)CC2)cc1F` [Example 382, 4-((1-((3-chloro-4-fluorophenyl)sulfonyl)piperidin-4-yl)methoxy)-5-cyclopropyl-2-fluoro-N-(methylsulfonyl)benzamide], 40.7 nM; that for `O=C(NS(=O)(=O)C1CC1)c1cc(C2CC2)c(OCC2CCN(Cc3cc(C(F)(F)F)cc(Cl)c3F)CC2)cc1F` [Example 582, 4-((1-(3-chloro-2-fluoro-5-(trifluoromethyl)benzyl)piperidin-4-yl)methoxy)-5-cyclopropyl-N-(cyclopropylsulfonyl)-2-fluorobenzamide], 4.2 nM. Take `C[C@@H](c1cc(Cl)cc(Cl)c1)N1CCC(COc2cc(F)c(C(=O)NS(C)(=O)=O)cc2Cl)CC1` [Example 402, (S)-5-chloro-4-((1-(1-(3,5-dichlorophenyl)ethyl)piperidin-4-yl)methoxy)-2-fluoro-N-(methylsulfonyl)benzamide, trifluoroacetic acid salt]: the IC50 amounted to 22.4 nM. In the case of `COC[C@H](c1cc(Cl)cc(Cl)c1)N1CCC(C)(COc2cc(F)c(C(=O)NS(C)(=O)=O)cc2C2CC2)CC1` (single isomer, unassigned) [Example 173], the IC50 was found to be 3.9 nM. On the same count and under the same terms, the result for `COC[C@H](c1cc(Cl)cc(Cl)c1)N1CCC(COc2cc(F)c(C(=O)NS(C)(=O)=O)cc2C2CC2)CC1` (single isomer, unassigned) [Example 163] reads 3.6 nM; that for `COCC(c1cc(Cl)cc(Cl)c1)N1CCC(COc2cc(F)c(C(=O)NS(C)(=O)=O)cc2C2CC2)CC1` (stereo not shown) [Example 90, 5-Cyclopropyl-4-((1-(1-(3,5-dichlorophenyl)-2-methoxyethyl)piperidin-4-yl)methoxy)-2-fluoro-N-(methylsulfonyl)benzamide], 2.87 nM; that for `COC(C)(C)[C@H](c1cc(Cl)cc(Cl)c1)N1CCC(COc2cc(F)c(C(=O)NS(C)(=O)=O)cc2C2CC2)CC1` (single isomer, unassigned) [Example 206], 1.8 nM.

For the compound `CS(=O)(=O)NC(=O)c1cc(C2CC2)c(OCC2CCN(Cc3cc(F)c(F)c(Cl)c3)CC2)cc1F` [Example 456, 4-((1-(3-chloro-4,5-difluorobenzyl)piperidin-4-yl)methoxy)-5-cyclopropyl-2-fluoro-N-(methylsulfonyl)benzamide, trifluoroacetic acid salt], the IC50 worked out at 9.3 nM. For `CS(=O)(=O)NC(=O)c1cc(C2CC2)c(OCC2CCN(C(c3ccccc3)c3cc(Cl)cc(Cl)c3)CC2)cc1F` (stereo not shown) [Example 412, 5-cyclopropyl-4-((1-((3,5-dichlorophenyl)(phenyl)methyl)piperidin-4-yl)methoxy)-2-fluoro-N-(methylsulfonyl)benzamide, trifluoroacetic acid salt], the IC50 is 1.5 nM.

In the case of `CS(=O)(=O)NC(=O)c1cc(C2CC2)c(OCC2CN([C@@H](c3ccccc3)c3ccc(OC(F)(F)F)cc3)C2)cc1F` [Example 112, (S)-5-Cyclopropyl-2-fluoro-N-(methylsulfonyl)-4-((1-(phenyl(4-(trifluoromethoxy)phenyl)methyl)azetidin-3-yl)methoxy)benzamide], the IC50 stood at 3.35 nM. In the case of `COC[C@H](c1ccc(Cl)cc1Cl)N1CCC(COc2cc(F)c(C(=O)NS(C)(=O)=O)cc2C2CC2)CC1` [Example 282, (S)-5-cyclopropyl-4-((1-(1-(2,4-dichlorophenyl)-2-methoxyethyl)piperidin-4-yl)methoxy)-2-fluoro-N-(methylsulfonyl)benzamide], the IC50 was 4.4 nM. In the case of `C[C@H]1[C@@H](Oc2cc(F)c(C(=O)NS(C)(=O)=O)cc2C2CC2)CCCN1Cc1cc(Cl)cc(Cl)c1` [Example 330, 5-cyclopropyl-4-(((2S,3S)-1-(3,5-dichlorobenzyl)-2-methylpiperidin-3-yl)oxy)-2-fluoro-N-(methylsulfonyl)benzamide, trifluoroacetic acid salt], the IC50 turned out to be 31.9 nM.

For the compound `C[C@@H]1CC[C@@H](Oc2cc(F)c(C(=O)NS(=O)(=O)C3CC3)cc2C2CC2)CN1Cc1ccc(F)cc1Cl` [Example 323, 4-(((3R,6R)-1-(2-chloro-4-fluorobenzyl)-6-methylpiperidin-3-yl)oxy)-5-cyclopropyl-N-(cyclopropylsulfonyl)-2-fluorobenzamide], the IC50 is 1.9 nM. For `COc1ccc(CN2CCC(COc3cc(F)c(C(=O)NS(C)(=O)=O)cc3C3CC3)CC2)cc1Cl` [Example 183, 4-((1-(3-Chloro-4-methoxybenzyl)piperidin-4-yl)methyoxy)-5-cyclopropyl-2-fluoro-N-(methylsulfonyl)benzamide], the IC50 was 47 nM.

Values taken from patent publication US9546164B2 (GENENTECH, INC., priority 2013, dated 2017).
